Test results published in publication PMC8510269, “A Simple Method of Synthesis of 3-Carboxy-2,2,5,5-Tetraethylpyrrolidine-1-oxyl and Preparation of Reduction-Resistant Spin Labels and Probes of Pyrrolidine Series” (Molecules, 2021).
Read-outs that look alike come from different tables or passages of the source.

Legend:
[1] = Partition coefficient octanol/water estimated from EPR amplitudes; assay type: physicochemical; details: ratio of concentrations in octanol to water; distilled water
Procedure: (§1) The EPR spectra in water were recorded on a Bruker ER-200D-SRC spectrometer in 50 µL glass capillary for 0.2–0.4 mM radical solutions degassed via bubbling with argon. Spectrometer settings: frequency, 9.87 GHz; microwave power, 5.0 mW; modulation amplitude, 0.05 mT; time constant, 50–100 ms; and conversion time, 5.12 ms. For kinetic measurements in water, stock solutions of nitroxide, ascorbic acid and glutathione in phosphate buffer (5 mM, pH 7.4) were prepared, and pH was adjusted to 7.4 with NaOH or HCl. All the solutions were deoxygenated with argon, carefully and quickly mixed in a small tube to attain final concentrations (nitroxide, 0.2–04 mM; GSH, 2 mM; and ascorbate, 100–300 mM) and were placed into an EPR capillary (50 μL). The capillary was sealed on both sides and placed into the EPR resonator. The decay of amplitude of the low-field component of the EPR spectrum was followed to obtain the kinetics. The initial part of the decay curves (up to 200 min) was used for fitting. Kinetics of the decay was fitted to a monoexponential function to calculate the first-order rate constants. Then, these constants were divided by the concentration of ascorbic acid to calculate the second-order reaction constants (Figure S3). Partition coefficients in a water–octanol mixture were estimated from the amplitudes of the EPR spectra of a nitroxide in water after extensive shaking with different portions of added octanol and separation using centrifugation.

[2] = Reduction of nitroxides with ascorbate in the presence of glutathione (EPR kinetics); assay type: physicochemical; details: nitroxide 0.3–0.4 mM, ascorbate 100–300 mM, 50 mM phosphate buffer, pH 7.4, 25 °C, glutathione 2 mM
Procedure: as §1, with “For kinetic measurements in water, stock solutions of nitroxide, ascorbic acid and glutathione in phosphate buffer (5 mM, pH 7.4) were prepared, and pH was adjusted to 7.4 with NaOH or HCl.” left out

[3] = literature value, cited from earlier work
[4] = parameters: method as in PMID 25348344; details: cited from earlier work
[5] = Decay of nitroxides in murine blood (EPR); assay type: in vitro ADME, mice; details: nitroxide 0.2 mM
Procedure: (§2) The measurements of kinetics of nitroxide decay in blood and tissue homogenates were performed using an Elexsys E540 X-band spectrometer in a 50 µL glass capillary for 0.2 mM solutions, with the following spectrometer settings: frequency, 9.87 GHz; centerfield, 350.6 mT; sweep range, 10 mT; microwave power, 2.0 mW; modulation amplitude, 0.1 mT; time constant, 10.24 ms; and conversion time, 20.48 ms.
(§3) The stock solutions of the nitroxides 25 and 31 in water ([…]) were prepared, and pH was adjusted to 7.0 with NaOH. A total of 2 μL of the nitroxide solution was added to 98 μL of the blood or tissue homogenate, giving a nitroxide concentration equal to 0.2 mM. The resulting mixture of nitroxide with blood or tissue homogenate was transferred to the glass capillary (50 μL) and the latter was placed into the EPR resonator. The decay of the double integral of the EPR spectrum was followed to obtain the kinetics.
Male five-month-old C57BL/6 mice were obtained from the Breeding Experimental Animal Laboratory of the Institute of Cytology and Genetics (ICG), Siberian Division of the Russian Academy of Sciences (Novosibirsk, Russia). All the experiments were carried out according to Animal Care Regulations of the Institute of Cytology and Genetics (ICG), Novosibirsk. Animals were sacrificed by decapitation, blood was collected into a microcentrifuge tube with heparin (final concentration 5%), gently rocked by hand and snap-frozen with liquid nitrogen immediately after collection. Organ tissue (brain, heart, liver and kidney) was excised on ice, rinsed with ice-cold 10 mM PBS (pH 7.4), sheared with scissors and homogenized in PBS (1/1 by weight) on ice using electric homogenizer fitted with a Teflon head. The homogenates were then additionally mixed with PBS (1/1 by weight, final dilution 1/3) to decrease viscosity for further aspiration into glass capillaries, and snap-frozen in liquid nitrogen. […]

[6] = Decay of nitroxides in tissue homogenates (brain, kidney, liver, heart; EPR); assay type: in vitro ADME, mice; details: nitroxide 0.2 mM
Procedure: as §2, §3
Male five-month-old C57BL/6 mice were obtained from the Breeding Experimental Animal Laboratory of the Institute of Cytology and Genetics (ICG), Siberian Division of the Russian Academy of Sciences (Novosibirsk, Russia). All the experiments were carried out according to Animal Care Regulations of the Institute of Cytology and Genetics (ICG), Novosibirsk. […]

Compound	Kp (partition coefficient octanol/water) [1]	kred × 10^4 (second-order rate constant for the initial rate of reduction with ascorbate) [2] [M^−1 s^−1]	melting point [°C]	further results
CCC1(CC)CC(C(=O)O)C(CC)(CC)N1[O] (stereo not shown) [Nitroxide 1, 3-Carboxy-2,2,5,5-tetraethylpyrrolidine-1-oxyl]	270	3.3 ± 0.5	–	kred × 10^4 (second-order rate constant of reduction with ascorbate) ([3]; ref 9): 20 ± 10 M^−1 s^−1; kred × 10^4 (second-order rate constant of reduction with ascorbate) ([3]; ref 14): ≤ 10 M^−1 s^−1; kred × 10^4 (second-order rate constant of reduction with ascorbate) ([3]; ref 45): 12.5 ± 0.3 M^−1 s^−1; Decay in cytosolic extract compared with trityl radical [4]: slower decay in cytosolic extract than trityl radical
CCC1=[N+]([O-])C(CC)(CC)C(C(=O)O)C1 (stereo not shown) [Nitroxide 8, 3-Carboxy-2,2,5-triethyl-3,4-dihydro-2H-pyrrole 1-oxide]	–	–	145 to 146	–
CCC1(CC)CC(C(=O)O)C(CC)(CC)N1 (stereo not shown) [Nitroxide 15, 3-Carboxy-2,2,5,5-tetraethylpyrrolidine]	–	–	113 to 114	–
CCC1(CC)CC(C(=O)OC)C(CC)(CC)N1O.Cl (stereo not shown)	–	–	148 to 150	–
3-(2-Triphenylphosphonio)acetamidomethyl-2,2,5,5-tetraethylpyrrolidine-1-oxyl chloride [Nitroxide 28]	13	2.4 ± 0.4	–	Time to plateau of decay in blood [5]: 10 min; Decrease of concentration in blood ([5]; plateaus in 10 min): ca. 10%; Decay in homogenate of brain ([6]; mouse brain homogenate): Faster decay of 28 as compared to 22; Decay in homogenate of liver ([6]; mouse liver homogenate): Faster decay of 28 as compared to 22
CCC1(CC)CC(CN2CCCCC2)C(CC)(CC)N1[O] (stereo not shown) [Nitroxide 30, 3-((Piperidin-1-yl)methyl)-2,2,5,5-tetraethylpyrrolidine-1-oxyl]	30	2.2 ± 0.5	–	–
CCC1(CC)CC(CNC(=O)CN2CCCC2)C(CC)(CC)N1[O] (stereo not shown) [Nitroxide 29, 3-(2-(Pyrrolidin-1-yl)acetamidomethyl)-2,2,5,5-tetraethylpyrrolidine-1-oxyl]	70	2.5 ± 0.4	–	–
CCC1(CC)CC(CN)C(CC)(CC)N1[O] (stereo not shown) [Nitroxide 22, 3-Aminomethyl-2,2,5,5-tetraethylpyrrolidine-1-oxyl]	5.5	4.1 ± 0.2	–	Decay in blood (in words) ([5]; 30 min): No decay
